Measured values published in patent US20240277705A1, “DOSAGE REGIMENS FOR ECUBECTEDIN” (PHARMA MAR S.A., priority 2021, published 2024).

Assays:
[1] = tested on: RXF 393 (renal carcinoma); experiment: MTT cell viability assay, RXF 393; format: cell-based; conditions: Homo sapiens, RXF 393, 72 h; read-out: GI50, M (geometric mean, N = 3)
Description: (§1) Cell lines and cell culture: The following human cancer cell lines have been used in this example (the collection code and the tissue of origin are shown in brackets): • RXF 393 (NCI) (renal carcinoma) • Caki-1 (ATCC HTB-46) (kidney clear cell carcinoma)
(§2) Cell lines were obtained from the American Type Culture Collection (ATCC) or the National Cancer Institute (NCI). Cells were maintained in the appropriate culture medium, namely: • RPMI for RXF 393 • McCoy's 5A for Caki-1
(§3) All media were supplemented with 10% FBS, 2 mM L-Glutamine and 100 units/mL of penicillin-streptomycin.
(§4) Cell viability assay: To assess the antiproliferative activity of the compounds a colorimetric assay based on 3-(4,5-Dimethylthiazol-2-yl)-2,5-diphenyltetrazolium bromide (MTT) reduction was used. […] Culture medium was then removed and 100 μL of neat DMSO added to each well to dissolve the formazan product into a coloured solution whose absorbance at 540 nm was finally measured in a PolarStar Omega microplate multilabel reader (BMG Labtech, Ortenberg, Germany). […]
(§5) GI50 is finally used as reference value. […] To define a significant (ca. 70%) confidence interval for the geometric mean, its value must be multiplied and divided by the corresponding geometric standard deviation (GSD) which was also calculated. […]

[2] = tested on: Caki-1 (kidney clear cell carcinoma); experiment: MTT cell viability assay, Caki-1; format: cell-based; conditions: Homo sapiens, CAKI-1, 72 h; read-out: GI50, M (geometric mean, N = 3)
Description: as §1, §2, §3, §4, §5

[3] = MRI-H-121 mouse xenograft study, tolerability; format: in vivo, mice
Procedure: Tumor bearing animals were randomly allocated into 2 groups (N=10/group): PM14 administered at 1.25 mg/kg and placebo. All treatments were intravenously administered once a week for 3 consecutive weeks (days 0, 7 and 14).
Tumor volume and animal body weights were measured 2-3 times per week starting from the first day of treatment.
Treatment tolerability was assessed by monitoring body weight evolution, clinical signs of systemic toxicity, as well as evidences of local damage in the injection site.
Treatments producing >20% lethality and/or 20% net body weight loss were considered toxic. Animals were euthanized when their tumors reached ca. 2,000 mm^3 and/or severe necrosis was seen.

MEXF 462NL (melanoma) = experiment: Propidium iodide monolayer cell proliferation assay, MEXF 462NL; format: cell-based, human; conditions: MEXL 462NL
Procedure: Cell proliferation assay: A modified propidium iodide (PI) based monolayer assay was used to assess the anti-cancer activity of the compounds (Dengler WA, Schulte J, Berger DP, Mertelsmann R, Fiebig HH, Anti-Cancer Drugs 1995, 6: 522-532). Briefly, cells were harvested from exponential phase cultures, counted and plated in 96 well flat-bottom microtiter plates at a cell density of 4,000 to 30,000 cells/well dependent on the cell line's growth rate. After a 24 h recovery period, to allow the cells to resume exponential growth, 10 μl of culture medium (4 control wells/cell line/plate) or of culture medium with test compounds were added. PM14 was applied at ten concentrations in half-log increments in duplicates up to 3.16 pM and treatment continued for four days. […] After an incubation period of 1-2 hours at room temperature, fluorescence (FU) was measured using the Enspire Multimode Plate Reader (excitation A=530 nm, emission A=620 nm) to quantify the amount of attached viable cells.
IC50 and IC70 values were calculated by 4 parameter non-linear curve fit using Oncotest Warehouse Software. […]
IC50 values were determined as described in Example 2, but using the following human cancer cell lines: • MEXF 276L (melanoma) • MEXF 462NL (melanoma) • MEXF 1341L (melanoma)

SMILES: COc1c(C)cc2c(c1O)[C@@H]1[C@@H]3[C@@H]4SC[C@]5(N[C@H](CO)Cc6c5[nH]c5ccccc65)C(=O)OC[C@@H](c5c6c(c(C)c(OC(C)=O)c54)OCO6)N3[C@@H](O)[C@H](C2)N1C [PM14, ECUBECTEDIN]
- GI50 [1]: 0.621 nM
- GI50 [2]: 0.611 nM
- mortality ([3]; 1.25 mg/kg i.v. days 0, 7 and 14): No mortality
- mean body weight reduction ([3]; Day 16, 1.25 mg/kg i.v. days 0, 7 and 14, reversible): ca. −15.0%
- tolerability ([3]; MRI-H-121 tumor bearing animals, 1.25 mg/kg): well tolerated
- IC50 (MEXF 462NL (melanoma); Homo sapiens, MEXF 462NL, read-out: IC50, μM (geometric mean)): 0.0001 µM
- IC70, μM (geometric mean) (MEXF 462NL (melanoma)): 0.0001 µM
